Experiment in all cases: cells
Holding throughout (format): cell-based
What all share (parameters): Percent inhibition compared to vehicle: concentration or dose not given beside the values

Test [1] relates to MCF-7 cells stably expressing UbC HA-ER-α L536P. The procedure, abridged:
(§1)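 MCF-7 lines stably expressing N-terminal HA-tagged wild-type or mutant ER-α, under a high-expressing EF1 or a low-to-moderate UbC promoter, plus an empty-vector control, grown in phenol-free RPMI with 10% CSS. Compound given at 10 μM to 5 pM final for 5 days. CellTiter-Glo luminescence minus background, divided by the time-zero reading, gave relative proliferation.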

Test [2] relates to MCF-7 cells stably expressing EF1 HA-ER-α Y537N. The settings on record: for Percent inhibition compared to vehicle: 5-Day Incubation; for Efficacy (Emax): Day 5 relative to Day 0; for EC50: read-out: Potency (EC50; nM). A digest of the protocol:
as §1

In test [3] the test system is MCF-7 cells stably expressing EF1 HA-ER-α E380Q. The note with it: for Percent inhibition compared to vehicle: 5-Day Incubation; for Efficacy (Emax): Day 5 relative to Day 0; for EC50: read-out: Potency (EC50; nM). The procedure, abridged: as §1
In test [4] the test system is MCF-7 cells stably expressing UbC HA-ER-α E380Q. The note with it: for Percent inhibition compared to vehicle: 5-Day Incubation; for Efficacy (Emax): Day 5 relative to Day 0. The procedure, abridged:
as §1

Test [5] relates to MCF-7 cells stably expressing UbC HA-ER-α Y537N. The settings on record: for Percent inhibition compared to vehicle: 5-Day Incubation; for Efficacy (Emax): Day 5 relative to Day 0. The procedure, abridged:
as §1

[6] abbreviates: Agonist Mode, −E2, 5-Day Incubation.
Where [7] appears, read: Agonist Mode, −E2, Day 5 relative to Day 0.
[8] abbreviates: Antagonist Mode, +E2, 5-Day Incubation.
The mark [9] stands for this setting: Antagonist Mode, +E2, Day 5 relative to Day 0.
Setting [10] is: EF1 HA-ER-α Y537N, Agonist Mode, −E2.
The mark [11] stands for this setting: EF1 HA-ER-α Y537N, Antagonist Mode, +E2.
Setting [12] is: EF1 HA-ER-α E380Q, Agonist Mode, −E2.
Setting [13] is: EF1 HA-ER-α E380Q, Antagonist Mode, +E2.
The mark [14] stands for this setting: UbC HA-ER-α E380Q, Agonist Mode, −E2.
[15] abbreviates: UbC HA-ER-α E380Q, Antagonist Mode, +E2.
Where [16] appears, read: UbC HA-ER-α Y537N, Agonist Mode, −E2.
The mark [17] stands for this setting: UbC HA-ER-α Y537N, Antagonist Mode, +E2.

The structures appear in SMILES notation. Like-named read-outs stand apart in the source and are kept apart here.

For the compound `CCC(=C(c1ccc(O)cc1)c1ccc(OCCN(C)C)cc1)c1ccccc1` [4-Hydroxytamoxifen], the “Percent inhibition compared to vehicle” value in test [1] (setting [6]) is listed as 35%; in test [1] (setting [8]) it was 61%; in test [2] (setting [10]), 60%; in test [2] (setting [11]), 57%; in test [3] (setting [12]), 21%; in test [3] (setting [13]), 19%. Besides, the “Percent inhibition compared to vehicle” value in test [4] (setting [14]) amounted to 44%; in test [4] (setting [15]) it was 66%; in test [5] (setting [16]), 46%; in test [5] (setting [17]), 65%. Further, the “Efficacy (Emax)” value in test [1] (setting [7]) is 2.06 ± 0.19; in test [1] (setting [9]) it was 2.31 ± 0.27; in test [2] (setting [10]), 2.43 ± 0.13; in test [2] (setting [11]), 2.39 ± 0.24; in test [3] (setting [12]) it was 5.17 ± 0.26; in test [3] (setting [13]), 5.03 ± 0.85. Further, the “Efficacy (Emax)” value in test [5] (setting [16]) is on record as 2.34 ± 0.29; in test [5] (setting [17]) it was 2.27 ± 0.07. For the same compound, the EC50 (in general, the concentration needed to bring the measured effect to its halfway point) in test [1] (Agonist Mode, −E2, read-out: Potency (EC50; nM)) is 0.821 ± 0.726 nM; in test [1] (Antagonist Mode, +E2, read-out: Potency (EC50; nM)), 2.13 ± 4.68 nM; in test [2] (setting [10]), 6.04 ± 1.36 nM; in test [2] (setting [11]), 5.25 ± 2.84 nM; in test [2] (EF1 HA-ER-α Y537N, Antagonist Mode, −E2 (Table 27)), 6.04 ± 1.36 nM; in test [3] (setting [12]) it was 26 ± 9.12 nM. Besides, the 50% effective concentration (EC50) in test [3] (setting [13]) was determined as 65.4 ± 24.4 nM; in test [3] (EF1 HA-ER-α E380Q, Antagonist Mode, −E2 (Table 27)) it was 26 ± 9.12 nM; in test [4] (UbC HA-ER-α E380Q, Agonist Mode, −E2, read-out: Potency (EC50; nM)), 1.59 ± 0.681 nM; in test [4] (UbC HA-ER-α E380Q, Antagonist Mode, +E2, read-out: Potency (EC50; nM)), 4.92 ± 0.671 nM; in test [5] (UbC HA-ER-α Y537N, Agonist Mode, −E2, read-out: Potency (EC50; nM)), 1.58 ± 0.955 nM; in test [5] (UbC HA-ER-α Y537N, Antagonist Mode, +E2, read-out: Potency (EC50; nM)) it was 5.03 ± 0.765 nM.
Consider `CC/C(=C(/c1ccc(/C=C/C(=O)O)cc1)c1ccc2[nH]ncc2c1)c1ccc(F)cc1Cl` [Compound 1-3, (E)-3-(4-((E)-2-(2-chloro-4-fluorophenyl)-1-(1H-indazol-5-yl)but-1-en-1-yl)phenyl)acrylic acid], for which the “Percent inhibition compared to vehicle” value worked out at 50% in test [1] (setting [6]); 72% in test [1] (setting [8]); 48% in test [2] (setting [10]); 44% in test [2] (setting [11]); 49% in test [3] (setting [12]); 52% in test [3] (setting [13]). Also, the “Percent inhibition compared to vehicle” value in test [4] (setting [14]) turned out to be 59%; in test [4] (setting [15]), 76%; in test [5] (setting [16]), 61%; in test [5] (setting [17]), 76%. The “Efficacy (Emax)” value in test [1] (setting [7]) is reported as 1.58 ± 0.16; in test [1] (setting [9]) it was 1.69 ± 0.10; in test [2] (setting [10]) it was 3.11 ± 0.28; in test [3] (setting [12]) it was 3.35 ± 0.07; in test [3] (setting [13]) it was 3.00 ± 0.18; in test [4] (setting [14]) it was 1.74 ± 0.24. The results for the “Efficacy (Emax)” value in test [4] (setting [15]), in test [5] (setting [16]) and in test [5] (setting [17]) were 1.72 ± 0.38, 1.67 ± 0.15 and 1.56 ± 0.04, respectively. Also, the 50% effective concentration (EC50) in test [1] (Homo sapiens, MCF7, Agonist Mode, −E2, read-out: Potency (EC50; nM)) was found to be 0.713 ± 0.487 nM; in test [1] (Homo sapiens, MCF7, read-out: Potency (EC50; nM), Antagonist Mode, +E2) it was 7.37 ± 3.93 nM; in test [2] (Homo sapiens, MCF7, EF1 HA-ER-α Y537N, Agonist Mode, −E2), 97.3 ± 46.9 nM; in test [2] (Homo sapiens, MCF7, EF1 HA-ER-α Y537N, Antagonist Mode, +E2), 125 ± 35.5 nM; in test [3] (Homo sapiens, MCF7, EF1 HA-ER-α E380Q, Agonist Mode, −E2), 18.6 ± 7.11 nM; in test [3] (Homo sapiens, MCF7, EF1 HA-ER-α E380Q, Antagonist Mode, +E2) it was 76.2 ± 21.5 nM. The EC50 was determined as 1.3 ± 0.232 nM in test [4] (Homo sapiens, MCF7, UbC HA-ER-α E380Q, Agonist Mode, −E2, read-out: Potency (EC50; nM)); 8.38 ± 3.31 nM in test [4] (Homo sapiens, MCF7, UbC HA-ER-α E380Q, Antagonist Mode, +E2, read-out: Potency (EC50; nM)); 2.22 ± 0.55 nM in test [5] (Homo sapiens, MCF7, UbC HA-ER-α Y537N, Agonist Mode, −E2, read-out: Potency (EC50; nM)); 9.5 ± 3.61 nM in test [5] (Homo sapiens, MCF7, UbC HA-ER-α Y537N, Antagonist Mode, +E2, read-out: Potency (EC50; nM)).
Regarding `C[C@]12CC[C@@H]3c4ccc(O)cc4CC[C@H]3[C@@H]1CC[C@@H]2O` [17β-Estradiol], the “Efficacy (Emax)” value in test [1] (setting [7]) is on record as 5.06 ± 0.76; in test [1] (setting [9]), 5.66 ± 0.52; in test [2] (setting [10]), 5.52 ± 0.43; in test [3] (setting [13]), 5.75 ± 0.17; in test [4] (setting [14]) it was 7.36 ± 1.07; in test [4] (setting [15]), 7.69 ± 1.94. Besides, the “Efficacy (Emax)” value in test [5] (setting [17]) is given as 6.49 ± 0.97. Besides, the half-maximal effective concentration (EC50) in test [1] (Homo sapiens, MCF7, read-out: Potency (EC50; nM), Agonist Mode, −E2) was 0.212 ± 0.401 nM; in test [4] (Homo sapiens, MCF7, read-out: Potency (EC50; nM), UbC HA-ER-α E380Q, Agonist Mode, −E2) it was 0.013 ± 0.011 nM; in test [5] (Homo sapiens, MCF7, read-out: Potency (EC50; nM), UbC HA-ER-α Y537N, Agonist Mode, −E2) it was 0.126 ± 0.233 nM.

For the origin of these results see patent US9855270B2, “Methods and compositions for modulating estrogen receptor mutants” (priority 2014, dated 2018).
